# Data as given in patent US20240317756A1, “INHIBITORS OF BRUTON'S TYROSINE KINASE” (Pharmacyclics LLC, priority 2006, published 2024).
# pIC50: −log10 of the molar value.
# Tests used:
# BTK = BTK (Homo sapiens (Human), UniProt Q06187); experiment: in vitro HotSpot kinase assay, BTK; assay type: biochemical; details: Table 2, 1 uM ATP, one hour incubation with inhibitor
# ITK = ITK (Homo sapiens (Human), UniProt Q08881); experiment: in vitro HotSpot kinase assay, ITK; assay type: biochemical; details: Table 2, 1 uM ATP, one hour incubation with inhibitor
# EGFR = EGFR (Homo sapiens (Human), UniProt P00533); experiment: in vitro HotSpot kinase assay, EGFR; assay type: biochemical; details: Table 2, 1 uM ATP, one hour incubation with inhibitor
# LCK = LCK (Homo sapiens (Human), UniProt P06239); experiment: in vitro HotSpot kinase assay, LCK; assay type: biochemical; details: Table 2, 1 uM ATP, one hour incubation with inhibitor
# JAK3 = JAK3 (Homo sapiens (Human), UniProt P52333); experiment: in vitro HotSpot kinase assay, JAK3; assay type: biochemical; details: Table 2, 1 uM ATP, one hour incubation with inhibitor
# lymphoma cell line DOHH2 = experiment: DOHH2 cell proliferation assay (Alamar Blue); assay type: cell-based
# Description: After 72 hours, cell number was measured using Alamar Blue using manufacturer's protocol. A dilution series of untreated cells was run in parallel to verify that the Alamar Blue assay reliably reflected cell number and that growth conditions were not limiting. […] GI50 values were confirmed in two or more separate experiments for each cell line.
# Analogs are generated that are Btk inhibitors and that are cytotoxic to the lymphoma cell line DOHH2. For the DOHH2 cell proliferation assay, cells were seeded in 96-well plates in standard growth media (RPMI+10% fetal calf serum) and compounds were added in a 9-point dilution series ranging from 10 uM to 0.04 uM with DMSO at 0.1% final concentration in all wells. After 72 hours, cell number was measured using Alamar Blue using manufacturer's protocol. A dilution series of untreated cells was run in parallel to verify that the Alamar Blue assay reliably reflected cell number and that growth conditions were not limiting.
# [1] = plasma concentrations after oral dosing of rats; assay type: in vivo; details: single oral dose 8 mg/kg each in combination
# Description: Blood samples were collected at 0.0833 (5 minutes), 0.333 (20 minutes), 1, 3, 6, 9, and 24 hours post-dosing from orally dosed rats.
# Male jugular vein cannulated rats were administered a single dose of all test compounds at 8 mg/kg each, in combination by oral gavage. Dose volumes were adjusted based on body weight data collected immediately prior to dosing. Blood samples were collected at 0.0833 (5 minutes), 0.333 (20 minutes), 1, 3, 6, 9, and 24 hours post-dosing from orally dosed rats. The samples were collected into plasma separator Microtainer tubes with anticoagulant (lithium heparin). Plasma samples were prepared by centrifugation (5 min at 5000×g), and at least 100 μL were transferred to storage tubes and stored frozen at −80° C. Plasma samples were thawed and 75 uL aliquots were transferred to centrifuge tubes to which 10 μL aliquots of internal standard solution (1 μg/mL) were added. The samples were not diluted with blank plasma prior to further processing. Soluble proteins were precipitated by the addition of 200 μL of acetonitrile, followed by centrifugation (20 min at 16,000×g). The samples were evaporated to dryness and reconstituted in 200 μL of water containing 0.2% formic acid and 10% methanol. All samples were loaded onto an autosampler maintained at 6° C. and evaluated for concentrations of test compounds using LC-MS/MS.
# [2] = glutathione binding assay; details: 5 mM glutathione, 10 μM Btk inhibitor, room temperature, HPLC
# Description: A calculated value (e.g (1/Btk IC50)/Glutathione conjugation rate) as shown in the Table 2) is used to compare compounds for their ratio between potency at inhibiting their target and their non-specific binding to other SH groups, such as those in glutathione. […] Calculated ratios such as these are used to quantitatively compare different compounds and select compounds for further study.
# For the glutathione binding assays, 5 mM glutathione, 10 μM Btk inhibitor in DMSO (10 μL) and 6 equivalents of N′N′ Diisopropyl ethyl amine were combined in 1 mL potassium phosphate buffer. The mixture was incubated for 0, 15, 60 minutes at room temperature and the reaction was stopped with 10 equivalents of formic acid. 50 μL of each reaction mixture was injected on HPLC (Mobil Phase A: 0.2% formic acid in water, Mobile Phase B: 0.2% formic acid in acetonitrile, HPLC Column: Metasil Basic 3μ, 150×4.6 mm, 10% B, Gradient: 10% to 90% B, Detection: UV/Vis […]). Rate of reaction was reported as nmole GSH conjugate conversion per minute from the normalized ratio for area under the curve from HPLC chromatograms for both GSH conjugate and the parent.
# Sequence of ITK (Q08881 whole entry, species assumed): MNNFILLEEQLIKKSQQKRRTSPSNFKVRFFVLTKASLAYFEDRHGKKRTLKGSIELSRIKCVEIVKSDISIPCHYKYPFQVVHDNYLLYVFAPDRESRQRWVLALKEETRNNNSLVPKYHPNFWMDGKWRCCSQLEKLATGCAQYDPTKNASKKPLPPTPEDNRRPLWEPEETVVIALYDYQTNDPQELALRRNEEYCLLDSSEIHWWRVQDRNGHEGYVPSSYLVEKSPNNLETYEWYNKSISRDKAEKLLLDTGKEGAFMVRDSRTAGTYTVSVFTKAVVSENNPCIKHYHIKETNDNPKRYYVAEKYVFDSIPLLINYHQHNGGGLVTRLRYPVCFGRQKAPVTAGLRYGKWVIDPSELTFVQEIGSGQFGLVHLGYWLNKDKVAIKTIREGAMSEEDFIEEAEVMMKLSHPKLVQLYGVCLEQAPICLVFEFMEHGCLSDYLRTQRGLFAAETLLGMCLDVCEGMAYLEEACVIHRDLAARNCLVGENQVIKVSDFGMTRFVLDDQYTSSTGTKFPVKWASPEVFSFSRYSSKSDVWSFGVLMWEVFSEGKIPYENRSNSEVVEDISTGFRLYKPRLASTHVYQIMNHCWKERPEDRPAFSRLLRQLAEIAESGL
# Sequence of JAK3 (P52333 whole entry, species assumed): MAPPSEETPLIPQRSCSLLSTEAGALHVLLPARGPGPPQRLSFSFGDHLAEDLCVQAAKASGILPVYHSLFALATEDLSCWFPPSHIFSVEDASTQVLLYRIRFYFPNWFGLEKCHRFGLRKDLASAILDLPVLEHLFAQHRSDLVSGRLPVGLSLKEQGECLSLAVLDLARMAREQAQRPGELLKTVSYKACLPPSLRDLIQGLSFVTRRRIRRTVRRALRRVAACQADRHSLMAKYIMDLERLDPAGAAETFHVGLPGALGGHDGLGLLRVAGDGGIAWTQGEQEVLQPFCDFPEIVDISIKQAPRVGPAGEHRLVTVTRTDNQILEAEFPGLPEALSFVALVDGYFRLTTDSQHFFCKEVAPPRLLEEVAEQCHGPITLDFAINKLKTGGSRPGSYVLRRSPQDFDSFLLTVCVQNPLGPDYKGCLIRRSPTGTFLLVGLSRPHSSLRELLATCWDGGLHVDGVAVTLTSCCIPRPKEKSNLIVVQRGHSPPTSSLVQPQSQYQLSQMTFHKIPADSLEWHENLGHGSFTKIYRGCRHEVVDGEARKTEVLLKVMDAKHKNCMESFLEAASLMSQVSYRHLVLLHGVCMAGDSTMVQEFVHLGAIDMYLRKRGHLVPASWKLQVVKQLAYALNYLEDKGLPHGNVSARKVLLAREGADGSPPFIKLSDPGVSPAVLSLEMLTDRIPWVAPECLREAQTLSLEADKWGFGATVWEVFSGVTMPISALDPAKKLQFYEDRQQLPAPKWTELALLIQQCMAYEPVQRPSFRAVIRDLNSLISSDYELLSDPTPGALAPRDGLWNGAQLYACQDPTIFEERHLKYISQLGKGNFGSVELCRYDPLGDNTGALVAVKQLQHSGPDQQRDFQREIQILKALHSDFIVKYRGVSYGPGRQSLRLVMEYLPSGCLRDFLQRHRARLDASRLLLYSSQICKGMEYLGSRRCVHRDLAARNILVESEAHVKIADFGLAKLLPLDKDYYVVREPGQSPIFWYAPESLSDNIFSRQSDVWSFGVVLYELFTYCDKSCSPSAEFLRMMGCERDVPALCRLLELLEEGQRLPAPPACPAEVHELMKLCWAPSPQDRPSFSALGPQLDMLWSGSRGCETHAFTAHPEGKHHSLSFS
# Sequence of BTK (Q06187 whole entry): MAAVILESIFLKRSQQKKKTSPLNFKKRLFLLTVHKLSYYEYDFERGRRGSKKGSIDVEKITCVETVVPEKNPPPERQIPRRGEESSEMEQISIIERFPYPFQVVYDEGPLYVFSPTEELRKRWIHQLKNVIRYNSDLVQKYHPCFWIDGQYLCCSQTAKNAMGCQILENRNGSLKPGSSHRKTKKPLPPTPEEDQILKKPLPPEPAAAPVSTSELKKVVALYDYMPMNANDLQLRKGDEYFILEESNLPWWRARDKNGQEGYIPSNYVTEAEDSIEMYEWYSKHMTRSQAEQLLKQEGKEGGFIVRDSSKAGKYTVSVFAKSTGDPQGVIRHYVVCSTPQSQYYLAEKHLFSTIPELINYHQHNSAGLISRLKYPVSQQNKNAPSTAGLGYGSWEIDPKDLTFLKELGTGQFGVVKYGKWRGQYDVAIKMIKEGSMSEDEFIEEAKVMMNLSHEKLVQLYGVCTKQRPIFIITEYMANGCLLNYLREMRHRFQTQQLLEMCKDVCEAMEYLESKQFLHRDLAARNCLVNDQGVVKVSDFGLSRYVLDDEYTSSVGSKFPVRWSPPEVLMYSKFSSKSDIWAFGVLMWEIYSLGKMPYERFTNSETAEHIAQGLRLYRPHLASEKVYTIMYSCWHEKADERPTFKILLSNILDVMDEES
# Sequence of LCK (P06239 whole entry, species assumed): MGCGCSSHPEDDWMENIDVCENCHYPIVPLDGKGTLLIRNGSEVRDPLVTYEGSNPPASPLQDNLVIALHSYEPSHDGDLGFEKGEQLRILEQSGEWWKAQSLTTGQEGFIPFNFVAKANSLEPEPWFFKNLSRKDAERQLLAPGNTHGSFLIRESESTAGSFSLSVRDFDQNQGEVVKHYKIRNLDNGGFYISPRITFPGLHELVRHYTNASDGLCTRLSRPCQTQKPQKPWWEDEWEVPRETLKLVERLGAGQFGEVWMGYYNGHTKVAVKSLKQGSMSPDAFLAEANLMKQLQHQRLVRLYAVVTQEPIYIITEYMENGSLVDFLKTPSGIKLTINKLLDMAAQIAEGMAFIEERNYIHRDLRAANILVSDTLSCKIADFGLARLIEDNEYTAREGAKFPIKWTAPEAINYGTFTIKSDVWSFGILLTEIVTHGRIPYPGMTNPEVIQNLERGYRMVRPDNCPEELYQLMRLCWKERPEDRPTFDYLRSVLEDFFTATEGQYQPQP
compound,measurement,setting,value
"CC#CC(=O)N1CCC[C@@H]1Cn1nc(-c2ccc(Oc3ccccc3)cc2)c2c(N)ncnc21 [Compound 15, 1((R)-2-((4-amino-3-(4-phenoxyphenyl)-1H-pyrazolo[3,4-d]pyrimidin-1-yl)methyl)pyrrolidin-1-yl)but-2-yn-1-one]",pIC50,BTK,8.38
same,pIC50,ITK,4.68
same,pIC50,EGFR,6.54
same,pIC50,LCK,8.23
same,pIC50,JAK3,< 5.00
same,GI50,"lymphoma cell line DOHH2; Homo sapiens, DOHH-2, 72 hours",590 nM
"CN(C)C/C=C/C(=O)N[C@H]1CC[C@@H](n2nc(-c3ccc(Oc4ccccc4)cc3)c3c(N)ncnc32)CC1 [Compound 8, (E)-N-((1s,4s)-4-(4-amino-3-(4-phenoxyphenyl)-1H-pyrazolo[3,4-d]pyrimidin-1-yl)cyclohexyl)-4-(dimethylamino)but-2-enamide]",pIC50,BTK,8.85
same,pIC50,EGFR,7.08
same,in vivo half-life,[1],significantly longer in vivo half-life
"CN(C)C/C=C/C(=O)N1CCC[C@@H]1Cn1nc(-c2ccc(Oc3ccccc3)cc2)c2c(N)ncnc21 [Compound 11, (E)-1-((R)-2-((4-amino-3-(4-phenoxyphenyl)-1H-pyrazolo[3,4-d]pyrimidin-1-yl)methyl)pyrolidin-1-yl)-4-(dimethylamino)but-2-en-1-one]",pIC50,BTK,9.04
same,pIC50,ITK,5.16
same,pIC50,EGFR,7.72
same,pIC50,LCK,8.61
same,pIC50,JAK3,< 5.00
same,Glutathione Conj Rate,[2],0.004525 nmol/min
same,GI50,"lymphoma cell line DOHH2; Homo sapiens, DOHH-2, 72 hours",> 10000 nM
"CC#CC(=O)N[C@H]1CC[C@@H](n2nc(-c3ccc(Oc4ccccc4)cc3)c3c(N)ncnc32)CC1 [Compound 22, N-((1s,4s)-4-(4-amino-3-(4-phenoxyphenyl)-1H-pyrazolo[3,4-d]pyrimidin-1-yl)cyclohexyl)but-2-ynamide]",pIC50,BTK,8.80
same,pIC50,ITK,5.43
same,pIC50,EGFR,6.81
same,pIC50,LCK,7.66
same,pIC50,JAK3,< 5.00
same,Glutathione Conj Rate,[2],0.014 nmol/min
same,GI50,lymphoma cell line DOHH2; 72 hours,< 40 nM
CN(C)C/C=C/C(=O)N[C@H]1CC[C@H](n2nc(-c3ccc(Oc4ccccc4)cc3)c3c(N)ncnc32)CC1 [Compound 18],pIC50,BTK,8.86
same,pIC50,ITK,5.60
same,pIC50,EGFR,7.65
same,pIC50,LCK,9.12
same,pIC50,JAK3,< 5.00
same,GI50,lymphoma cell line DOHH2; 72 hours,< 30 nM
"C=CC(=O)N1CCC[C@H]1Cn1nc(-c2ccc(Oc3ccccc3)cc2)c2c(N)ncnc21 [Compound 14, 1-((S)-2-((4-amino-3-(4-phenoxyphenyl)-1H-pyrazolo[3,4-d]pyrimidin-1-yl)methyl)pyrrolidin-1-yl)prop-2-en-1-one]",pIC50,BTK,9.41
same,pIC50,ITK,6.23
same,pIC50,EGFR,8.64
same,pIC50,LCK,8.03
same,pIC50,JAK3,5.84
same,GI50,"lymphoma cell line DOHH2; Homo sapiens, DOHH-2, 72 hours",370 nM
C=CC(=O)N1CCC(n2nc(-c3ccc(Oc4ccccc4)cc3)c3c(N)ncnc32)CC1 [Compound 6],pIC50,BTK,8.51
same,Glutathione Conj Rate,[2],0.39 nmol/min
"Nc1ncnc2c1c(-c1ccc(Oc3ccccc3)cc1)nn2[C@@H]1CCCN(C(=O)/C=C/CN2CCOCC2)C1 [Compound 24, (E)-1-((R)-3-(4-amino-3-(4-phenoxyphenyl)-1H-pyrazolo[3,4-d]pyrimidin-1-yl)piperidin-1-yl)-4-morpholinobut-2-en-1-one]",pIC50,BTK,9.05
same,pIC50,ITK,6.32
same,pIC50,EGFR,6.42
same,pIC50,LCK,6.63
same,pIC50,JAK3,5.04
same,GI50,"lymphoma cell line DOHH2; Homo sapiens, DOHH-2, 72 hours",440 nM
Nc1ncnc2c1c(-c1ccc(Oc3ccccc3)cc1)nn2C1CCN(C(=O)/C=C/CN2CCOCC2)CC1 [Compound 20],pIC50,BTK,8.39
same,pIC50,ITK,5.10
same,pIC50,EGFR,6.52
same,pIC50,LCK,7.01
same,pIC50,JAK3,< 5.00
same,GI50,lymphoma cell line DOHH2; 72 hours,390 nM
"Nc1ncnc2c1c(-c1ccc(Oc3ccccc3)cc1)nn2C1CCCN(C(=O)/C=C/CN2CCOCC2)C1 (stereo not drawn) [Compound 5, (E)-1-(3-(4-amino-3-(4-phenoxyphenyl)-1H-pyrazolo[3,4-d]pyrimidin-1-yl)piperidin-1-yl)-4-morpholinobut-2-en-1-one]",pIC50,BTK,8.25
same,pIC50,EGFR,6.49
same,Glutathione Conj Rate,[2],0.004 nmol/min
"C=CC(=O)NCCn1nc(-c2ccc(Oc3ccccc3)cc2)c2c(N)ncnc21 [Compound 23, N-(2-(4-amino-3-(4-phenoxyphenyl)-1H-pyrazolo[3,4-d]pyrimidin-1-yl)ethyl)acrylamide]",pIC50,BTK,9.49
same,pIC50,ITK,6.08
same,pIC50,EGFR,7.15
same,pIC50,LCK,6.68
same,pIC50,JAK3,5.48
same,GI50,"lymphoma cell line DOHH2; Homo sapiens, DOHH-2, 72 hours",110 nM
"(E)-4-(N-(2-hydroxyethyl)-N-methylamino)-1-(3-(4-phenoxyphenyl)-1H-pyrazolo[3,4-d]pyrimidin-1-yl)piperidin-1-yl)but-2-en-1-one [Compound 3]",pIC50,BTK,7.68
same,pIC50,EGFR,7.13
Nc1ncnc2c1c(-c1ccc(Oc3ccccc3)cc1)nn2C[C@@H]1CCCN1C(=O)/C=C/CN1CCOCC1 [Compound 21],pIC50,BTK,8.38
same,pIC50,ITK,< 5.00
same,pIC50,EGFR,5.20
same,pIC50,LCK,5.87
same,pIC50,JAK3,< 5.00
same,GI50,lymphoma cell line DOHH2; 72 hours,1530 nM
"C=CC(=O)N1CCC[C@@H]1Cn1nc(-c2ccc(Oc3ccccc3)cc2)c2c(N)ncnc21 [Compound 13, 1-((R)-2-((4-amino-3-(4-phenoxyphenyl)-1H-pyrazolo[3,4-d]pyrimidin-1-yl)methyl)pyrrolidin-1-yl)prop-2-en-1-one]",pIC50,BTK,9.17
same,pIC50,ITK,5.52
same,pIC50,EGFR,7.73
same,pIC50,LCK,8.81
same,pIC50,JAK3,4.89
same,GI50,"lymphoma cell line DOHH2; Homo sapiens, DOHH-2, 72 hours",240 nM
"Nc1ncnc2c1c(-c1ccc(Oc3ccccc3)cc1)nn2[C@H]1CC[C@@H](NC(=O)/C=C/CN2CCOCC2)CC1 [Compound 25, (E)-N-((1s,4s)-4-(4-amino-3-(4-phenoxyphenyl)-1H-pyrazolo[3,4-d]pyrimidin-1-yl)cyclohexyl)-4-morpholinobut-2-enamide]",pIC50,BTK,8.46
same,pIC50,ITK,< 5.00
same,pIC50,EGFR,6.56
same,pIC50,LCK,7.59
same,pIC50,JAK3,< 5.00
same,GI50,lymphoma cell line DOHH2; 72 hours,50 nM
"CC#CC(=O)N1CCC[C@H]1Cn1nc(-c2ccc(Oc3ccccc3)cc2)c2c(N)ncnc21 [Compound 16, 1-((S)-2-((4-amino-3-(4-phenoxyphenyl)-1H-pyrazolo[3,4-d]pyrimidin-1-yl)methyl)pyrrolidin-1-yl)but-2-yn-1-one]",pIC50,BTK,8.50
same,pIC50,ITK,< 5.00
same,pIC50,EGFR,5.55
same,pIC50,LCK,8.42
same,pIC50,JAK3,< 5.00
same,GI50,"lymphoma cell line DOHH2; Homo sapiens, DOHH-2, 72 hours",210 nM
"C=CC(=O)N(C)CCn1nc(-c2ccc(Oc3ccccc3)cc2)c2c(N)ncnc21 [Compound 19, N-(2-(4-amino-3-(4-phenoxyphenyl)-1H-pyrazolo[3,4-d]pyrimidin-1-yl)ethyl)-N-methylacrylamide]",pIC50,BTK,8.80
same,pIC50,ITK,6.27
same,pIC50,LCK,8.18
same,pIC50,JAK3,5.22
same,GI50,"lymphoma cell line DOHH2; Homo sapiens, DOHH-2, 72 hours",690 nM
"CC#CC(=O)N1CCC[C@@H](n2nc(-c3ccc(Oc4ccccc4)cc3)c3c(N)ncnc32)C1 [Compound 17, 1-((R)-3-(4-amino-3-(4-phenoxyphenyl)-1H-pyrazolo[3,4-d]pyrimidin-1-yl)piperidin-1-yl)but-2-yn-1-one]",pIC50,BTK,8.70
same,pIC50,ITK,5.63
same,pIC50,EGFR,6.36
same,pIC50,LCK,8.68
same,pIC50,JAK3,< 5.00
same,Glutathione Conj Rate,[2],0.0243 nmol/min
same,GI50,"lymphoma cell line DOHH2; Homo sapiens, DOHH-2, 72 hours",210 nM
"C=CC(=O)N[C@H]1CC[C@H](n2nc(-c3ccc(Oc4ccccc4)cc3)c3c(N)ncnc32)CC1 [Compound 10, N-((1r,4r)-4-(4-amino-3-(4-phenoxyphenyl)-1H-pyrazolo[3,4-d]pyrimidin-1-yl)cyclohexyl)acrylamide]",pIC50,ITK,5.71
same,pIC50,JAK3,< 5.00
same,GI50,"lymphoma cell line DOHH2; Homo sapiens, DOHH-2, 72 hours",< 30 nM
